# Measurements: US20140329858A1, “Cyclic Urea Derivatives As Androgen Receptor Antagonists” (priority 2011, published 2014)
# Tested on: Vcap cells
# Experiment: Dihydrotestosterone (DHT) mediated XTT cell proliferation assay for screening AR antagonists using Vcap cells
# Assay type: cell-based
# Settings: Homo sapiens, 240 h, in the presence of 0.2 nM DHT, XTT readout on Day 10, IC50 curves from 8 concentrations
# Method in brief: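 VCaP cells, starved 5 days in phenol red-free DMEM with 8% charcoal-stripped serum, were plated and treated on Day 4 with compound (0.1 nM-30 μM, 8 concentrations) plus 0.2 nM DHT, redosed Day 7. On Day 10 viability was read by XTT at 465 nm; IC50 from sigmoidal dose-response fit.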
row,SMILES,IC50 [µM]
1,"N#Cc1ccc(N2C(=O)N(c3cnccc3C3CC3)[C@H]3CCCC[C@@H]32)cc1C(F)(F)F [Example 62, 4-((3aS,7aS)-3-(4-cyclopropylpyridin-3-yl)-2-oxooctahydro-1H-benzo[d]imidazol-1-yl)-2-(trifluoromethyl)benzonitrile]",2.16
2,"Cc1n[nH]cc1N1C(=O)N(c2ccc(C#N)c(C(F)(F)F)c2)[C@@H]2CCCC[C@H]21 (racemic) [Example 52, trans-4-(3-(3-methyl-1H-pyrazol-4-yl)-2-oxooctahydro-1H-benzo[d]imidazol-1-yl)-2-(trifluoromethyl)benzonitrile (±)]",> 10
3,"CNc1ccc(N2C(=O)N(c3ccc(C#N)c(C(F)(F)F)c3)[C@@H]3CCCC[C@H]32)cc1F (racemic) [Example 14, Trans-4-(3-(3-fluoro-4-(methylamino)phenyl)-2-oxooctahydro-1H-benzo[d]im-idazol-1-yl)-2-(trifluoromethyl)benzonitrile (±)]",0.715
4,"CNC(=O)c1ccc(N2C(=O)N(c3ccc(C#N)c(C(F)(F)F)c3)[C@@H]3CCCC[C@H]32)s1 (racemic) [Example 40, Trans-5-(3-(4-cyano-3-(trifluoromethyl)phenyl)-2-oxooctahydro-1H-benzo[d]imidazol-1-yl)-N-methylthiophene-2-carboxamide (±)]",> 10
5,"N#Cc1ccc(N2C(=O)N(c3ccc(C(N)=O)c(F)c3)[C@@H]3CCOC[C@H]32)cc1C(F)(F)F (racemic) [Example 76, Trans-4-(3-(4-cyano-3-(trifluoromethyl)phenyl)-2-oxohexahydropyrano[3,4-d]imidazol-1(6H)-yl)-2-fluorobenzamide (±)]",2.54
6,"N#Cc1ccc(N2C(=O)N(c3ccc(C(=O)NCCO)c(F)c3)[C@@H]3CCCC[C@H]32)cc1C(F)(F)F (racemic) [Example 32, Trans 4-(3-(4-cyano-3-(trifluoromethyl)phenyl)-2-oxooctahydro-1H-benzo[d]im-idazol-1-yl)-2-fluoro-N-(2-hydroxyethyl)benzamide (±)]",0.377
7,"N#Cc1ccc(N2C(=O)N(c3ccc4c(c3)CCO4)[C@H]3CCCC[C@@H]32)cc1C(F)(F)F [Example 58, 4-((3aS,7aS)-3-(2,3-dihydrobenzofuran-5-yl)-2-oxooctahydro-1H-benzo[d]imidazol-1-yl)-2-(trifluoromethyl)benzonitrile]",0.547
8,"CN(C)CCCONC(=O)c1ccc(N2C(=O)N(c3ccc(C#N)c(C(F)(F)F)c3)[C@@H]3CCCC[C@H]32)cc1F (racemic) [Example 25, Trans 4-(3-(4-cyano-3-(trifluoromethyl)phenyl)-2-oxooctahydro-1H-benzo[d]im-idazol-1-yl)-N-(3-(dimethylamino)propoxy)-2-fluorobenzamide (±)]",0.0424
9,"CNC(=S)c1ccc(N2C(=O)N(c3ccc(C#N)c(C(F)(F)F)c3)[C@H]3CCCC[C@@H]32)cc1F [Example 41, 4-((3aS,7 aS)-3-(4-cyano-3-(trifluoromethyl)phenyl)-2-oxooctahydro-1H-benzo[d]imidazol-1-yl)-2-fluoro-N-methylbenzothioamide]",0.134
10,CC(=O)Nc1ccc(N2C(=O)N(c3ccc(C#N)c(C(F)(F)F)c3)[C@@H]3CCCC[C@H]32)cc1F (racemic) [Example 12],0.533
11,"CC(=O)c1ccc(N2C(=O)N(c3ccc(C#N)c(C(F)(F)F)c3)[C@H]3CCCC[C@@H]32)cc1F [Example 45, 4-((3aS,7aS)-3-(4-acetyl-3-fluorophenyl)-2-oxooctahydro-1H-benzo[d]imidazol-1-yl)-2-(trifluoromethyl)benzonitrile]",1.02
12,"N#Cc1ccc(N2C(=O)N(Cc3cc[nH]n3)[C@@H]3CCCC[C@H]32)cc1C(F)(F)F (racemic) [Example 51, Trans-4-(3-((1H-pyrazol-3-yl)methyl)-2-oxooctahydro-1H-benzo[d]imidazol-1-yl)-2-(trifluoromethyl)benzonitrile (±)]",1.08
13,"N#Cc1ccc(N2C(=O)N(c3ccc(C(N)=O)c(F)c3)[C@H]3CCCC[C@@H]32)cc1C(F)(F)F [Example 31, 4-((3aS,7aS)-3-(4-cyano-3-(trifluoromethyl)phenyl)-2-oxooctahydro-1H-benzo[d]imidazol-1-yl)-2-fluorobenzamide]",0.0372
14,"CONC(=O)c1ccc(N2C(=O)N(c3ccc(C#N)c(C(F)(F)F)c3)[C@@H]3CCCC[C@H]32)cc1F (racemic) [Example 18, Trans-4-(3-(4-cyano-3-(trifluoromethyl)phenyl)-2-oxooctahydro-1H-benzo[d]im-idazol-1-yl)-2-fluoro-N-methoxybenzamide (±)]",0.374
15,"CNC(=O)c1ccc(C2=C[C@H]3[C@@H](CC2)N(c2ccc(C#N)c(C(F)(F)F)c2)C(=O)N3C)cc1F (racemic) [Example 89, Cis-4-(1-(4-cyano-3-(trifluoromethyl)phenyl)-3-methyl-2-oxo-2,3,3a,6,7,7a-hexahydro-1H-benzo[d]imidazol-5-yl)-2-fluoro-N-methylbenzamide (±)]",1.01
16,"CNC(=O)c1ccc(N2C(=O)N(c3ccc(C#N)c(C(F)(F)F)c3)[C@@H]3CCC=C[C@H]32)cc1F (racemic) [Example 84, trans-4-(3-(4-cyano-3-(trifluoromethyl)phenyl)-2-oxo-2,3,3a,4,5,7a-hexahydro-1H-benzo[d]imidazol-1-yl)-2-fluoro-N-methylbenzamide (±)]",0.161

# Same assay, conditions: in the presence of 0.2 nM DHT, XTT readout on Day 10, IC50 curves from 8 concentrations
row,SMILES,IC50 [µM]
1,"CNC(=O)c1ccc(N2C(=O)N(c3ccc(C#N)c(C(F)(F)F)c3)[C@@H]3CCCC[C@H]32)cc1F (relative stereo) [Example 1a, Trans-4-{3-[4-cyano-3-(trifluoromethyl)phenyl]-2-oxo-octahydro-1H-1,3-benzodiazol-1-yl}-2-fluoro-N-Methylbenzamide (+)]",> 10
2,"N#Cc1ccc(N2C(=O)N(c3ccccc3)[C@@H]3CCCC[C@H]32)cc1C(F)(F)F (relative stereo) [Example 5b, Trans-4-(2-oxo-3-phenyloctahydro-1H-benzo[d]imidazol-1-yl)-2-(trifluoromethyl)benzonitrile (−)]",1.05
